Data as given in patent US20100227869A1, “ENANTIOPURE QUINUCLIDINYLOXY PYRIDAZINES AND THEIR USE AS NICOTINIC ACETYLCHOLINE RECEPTOR LIGANDS” (priority 2006, published 2010).

melting point [°C] | SMILES
154.5 to 159.4 | C(#Cc1ccc(O[C@@H]2CN3CCC2CC3)nn1)c1ccccc1.O=C(O)/C=C/C(=O)O
151.3 to 157.3 | C(#Cc1ccc(O[C@H]2CN3CCC2CC3)nn1)c1ccccc1.O=C(O)/C=C/C(=O)O
